This note sets out measurements from patent US8003677B2, “2-heteroaryl-pyrrolo[3,4-c]pyrrole derivatives and their use as SCD inhibitors” (Sanofi-Aventis, priority 2007, dated 2011).

The target in the experiment is T1, SCD1 (Rattus norvegicus, UniProt P07308).
T1 construct: The resuspended microsome fraction was stored at −80° C; from tissue; host or cells: liver microsomes of male Wistar rats fed a carbohydrate-rich, low-fat diet
T1 sequence (P07308 1-358): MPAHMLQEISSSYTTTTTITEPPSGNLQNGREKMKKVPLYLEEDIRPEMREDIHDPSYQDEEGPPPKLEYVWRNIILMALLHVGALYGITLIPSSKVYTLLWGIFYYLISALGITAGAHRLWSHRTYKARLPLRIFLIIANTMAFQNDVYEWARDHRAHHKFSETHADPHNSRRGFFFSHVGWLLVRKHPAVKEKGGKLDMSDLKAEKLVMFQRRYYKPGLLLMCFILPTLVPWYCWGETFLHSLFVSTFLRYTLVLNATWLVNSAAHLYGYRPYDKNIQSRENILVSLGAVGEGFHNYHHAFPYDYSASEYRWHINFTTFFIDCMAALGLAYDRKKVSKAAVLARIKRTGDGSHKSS
Kind of experiment: stearoyl-CoA desaturase (SCD1) activity in rat liver microsomes, TLC assay with 1-14C-labeled stearic acid. The following applies: inhibition of SCD1 activity; compound at 10 μM/l; 15 μg rat liver microsomes (male Wistar rats); 37° C., 1 h. The experiment is classed as biochemical. The procedure: The efficacy of the inventive compounds of the formula I was tested with microsomal enzymes in the following assay system:
The livers of male Wistar rats which (to induce the expression of SCD1) had been fed with a carbohydrate-rich, low-fat diet were homogenized with a Potter tissue homogenizer and differential centrifugation in a buffer which contained 250 mM/l of sucrose and 5 mM/l of HEPES (pH 7.0). The resuspended microsome fraction was stored at −80° C. The stearoyl-CoA desaturase activity was determined in a thin-film chromatography assay with 1-^14C-labeled stearic acid. In short, the particular inventive compounds (in DMSO in a final concentration of 1% [v/v]) were incubated with 15 μg of the rat liver microsomes in 200 μl of assay buffer (6 mM/l of MgCl2, 250 mM/l of sucrose, 150 mM/l of KCl, 40 mM/l of NaF, 100 mM/l of Na2HPO4 (pH7.4), 1.3 mM/l of ATP, 1.5 mM/l of reduced glutathione, 60 uM/l of CoA, 0.33 mM/l of nicotinamide and 0.94 mM/l of NADH) at room temperature for 10 min. 0.5 μCi [1-^14C]-stearic acid (55 mCi/mmol) was added, and the mixture was incubated at 37° C. for 1 h. The radioactively labeled fatty acids were subsequently hydrolyzed at 65° C. with 2.5 M KOH/MeOH:H2O (4:1) for 4 h, protonated with 280 μl of formic acid and extracted with 500 μl of hexane. The TLC plates were immersed into 10% AgNO3 and heat-activated before use. 150 μl of the hexane phase were applied to the plates, and the TLC plates were developed in buffer (chloroform:methanol:acetic acid:water [90:8:1:0.8]) and dried. The plates were read off in a phosphoimager to quantify the SCD1 activity.
The person skilled in the art can modify this assay in various aspects to determine the inhibition of the stearoyl-CoA desaturase activity.
For orientation: Liver microsomes are vesicles of endoplasmic reticulum, rich in cytochrome P450 enzymes.

Compound `CCOC(=O)c1cnc(N2CC3=C(CN(C(=O)c4ccccc4C(F)(F)F)C3)C2)s1` [Example 1, Ethyl 2-[5-(2-trifluoromethylbenzoyl)-3,4,5,6-tetrahydro-1H-pyrrolo[3,4-c]pyrrol-2-yl]thiazole-5-carboxylate] displayed an inhibition at 10 µM of 65%. Next, `O=C(NCCC1CC1)c1cnc(N2CC3=C(CN(C(=O)c4ccccc4C(F)(F)F)C3)C2)s1` [Example 2, N-(2-Cyclopropylethyl)-2-[5-(2-trifluoromethylbenzoyl)-3,4,5,6-tetrahydro-1H-pyrrolo-[3,4-c]pyrrol-2-yl]thiazole-5-carboxamide]: 31%; `O=C(NCCCc1ccccc1)c1cnc(N2CC3=C(CN(C(=O)c4ccccc4C(F)(F)F)C3)C2)s1` [Example 9, N-(3-Phenylpropyl)-2-[5-(2-trifluoromethylbenzoyl)-3,4,5,6-tetrahydro-1H-pyrrolo[3,4-c]-pyrrol-2-yl]thiazole-5-carboxamide]: 26%.

`CC(C)CCNC(=O)c1ccc(N2CC3=C(CN(C(=O)c4ccccc4C(F)(F)F)C3)C2)nc1` [Example 10, N-(3-Methylbutyl)-6-[5-(2-trifluoromethylbenzoyl)-3,4,5,6-tetrahydro-1H-pyrrolo[3,4-c]-pyrrol-2-yl]nicotinamide] gave an inhibition at 10 µM of 100%.

For `O=C(NCCc1ccccc1)c1ccc(N2CC3=C(CN(C(=O)c4ccccc4C(F)(F)F)C3)C2)nc1` [Example 13, N-Phenethyl-6-[5-(2-trifluoromethylbenzoyl)-3,4,5,6-tetrahydro-1H-pyrrolo[3,4-c]pyrrole-2-yl]nicotinamide], the inhibition at 10 µM worked out at 100%. `O=C(NCCC1CC1)c1ccc(N2CC3=C(CN(C(=O)c4ccccc4C(F)(F)F)C3)C2)nc1` [Example 14, N-(2-Cyclopropylethyl)-6-[5-(2-trifluoromethylbenzoyl)-3,4,5,6-tetrahydro-1H-pyrrolo-[3,4-c]pyrrol-2-yl]nicotinamide]: the inhibition at 10 µM was found to be 100%. Consider `O=C(NCc1nccs1)c1ccc(N2CC3=C(CN(C(=O)c4ccccc4C(F)(F)F)C3)C2)nc1` [Example 15, N-Thiazol-2-ylmethyl-6-[5-(2-trifluoromethylbenzoyl)-3,4,5,6-tetrahydro-1H-pyrrolo-[3,4-c]pyrrol-2-yl]nicotinamide], for which at 10 µM the inhibition was 100%.

As to `CN(Cc1nccs1)C(=O)c1ccc(N2CC3=C(CN(C(=O)c4ccccc4C(F)(F)F)C3)C2)nc1` [Example 16, N-Methyl-N-thiazol-2-ylmethyl-6-[5-(2-trifluoromethylbenzoyl)-3,4,5,6-tetrahydro-1H-pyrrolo[3,4-c]pyrrol-2-yl]nicotinamide], the inhibition at 10 µM stood at 100%. Regarding `O=C(NCC1CC1)c1ccc(N2CC3=C(CN(C(=O)c4ccccc4C(F)(F)F)C3)C2)nc1` [Example 17, N-Cyclopropylmethyl-6-[5-(2-trifluoromethylbenzoyl)-3,4,5,6-tetrahydro-1H-pyrrolo-[3,4-c]pyrrol-2-yl]nicotinamide], the inhibition at 10 µM was 97%.

`CCC(O)CCNC(=O)c1ccc(N2CC3=C(CN(C(=O)c4cc(OC)ccc4Br)C3)C2)nn1` (centres unmarked) [Example 18, N-(3-Hydroxypentyl)-6-[5-(2-bromo-5-methoxybenzoyl)-3,4,5,6-tetrahydro-1H-pyrrolo-[3,4-c]pyrrol-2-yl]pyridazine-3-carboxamide] returned an inhibition at 10 µM of 38%. Next, `O=C(NCCC1CC1)c1ccc(N2CC3=C(CN(C(=O)c4ccccc4C(F)(F)F)C3)C2)nn1` [Example 19, N-(2-Cyclopropylethyl)-6-[5-(2-trifluoromethylbenzoyl)-3,4,5,6-tetrahydro-1H-pyrrolo-[3,4-c]pyrrol-2-yl]pyridazine-3-carboxamide]: 100%; `O=C(NCc1cncs1)c1ccc(N2CC3=C(CN(C(=O)c4ccccc4C(F)(F)F)C3)C2)nc1` [Example 20, N-Thiazol-5-ylmethyl-6-[5-(2-trifluoromethylbenzoyl)-3,4,5,6-tetrahydro-1H-pyrrolo-[3,4-c]pyrrol-2-yl]nicotinamide]: 100%; `O=C(NCC1CCCC1)c1ccc(N2CC3=C(CN(C(=O)c4ccccc4C(F)(F)F)C3)C2)nc1` [Example 21, N-Cyclopentylmethyl-6-[5-(2-trifluoromethylbenzoyl)-3,4,5,6-tetrahydro-1H-pyrrolo-[3,4-c]pyrrol-2-yl]nicotinamide]: 100%. In turn, `O=C(NCCC1CCCC1)c1ccc(N2CC3=C(CN(C(=O)c4ccccc4C(F)(F)F)C3)C2)nc1` [Example 22, N-(2-Cyclopentylethyl)-6-[5-(2-trifluoromethylbenzoyl)-3,4,5,6-tetrahydro-1H-pyrrolo-[3,4-c]pyrrol-2-yl]nicotinamide] came in with an inhibition at 10 µM of 100%.

For orientation: inhibition means the relative decrease from the control value, in per cent. The low end stands for a response near the control, the high end for a response far below the control.
